# According to patent US10316050B2, “PT (IV) complexes containing 4,4′-disubstituted-2,2′-bipyridyl and their use in cancer therapy” (THE BOARD OF REGENTS OF THE NEVADA SYSTEM OF HIGHER …, priority 2014, dated 2019):
# Like-named read-outs stand apart in the source and are kept apart here.
# Tests used:
# [1] = Solubility in DMSO and common organic solvents; assay type: physicochemical
# Procedure: Coordination of the axial ligands to the Pt center improved the solubility of the complexes in common organic solvents. DMSO solutions of the Pt(IV) complexes with concentrations of 10 mM or higher were obtainable, whereas the Pt(II) can only be made at the highest concentration of 5 mM.
# A549 lung cancer cells = assay: MTS cell viability assay, A549; assay type: cell-based, human; conditions: for EC50: read-out: EC50 (effective concentration that resulted in 50% cell viability)
# Procedure: (§1) Human breast (HCC38, MCF-7, MDA-MB-231, SK-BR-3, T-47D, and ZR-75-1), lung (A549 and H520), and prostate (DU145 and PC-3) cancer cell lines were obtained from American Culture Type Collection (ATCC). The HCC38, MCF-7, MDA-MB-231, SK-BR-3, T-47D, ZR-75-1, and A549 cells were grown in MEM supplemented with 10% FBS, 25 mM HEPES buffer (pH 7.4), penicillin (100 U/mL), and streptomycin (100 μg/mL). The H520, DU145, and PC-3 cell lines were grown in RPMI-1640 supplemented with 10% FBS, 25 mM HEPES buffer (pH 7.4), penicillin (100 U/mL), and streptomycin (100 μg/mL). All cell lines were maintained at 37° C. in a humidified, 5% CO2 atmosphere.
# (§2) Cells were cultured at a density of 2-3.5×10^3 cells per well in flat bottomed 96-well plates in 100 μL of complete growth medium and incubated for 2 days to reach ˜50% confluence. The cells were then treated with solvent or the appropriate drugs (CDDP stock was dissolved in 0.15 M NaCl, carboplatin stock was dissolved in 5% glucose, synthesized Pt(IV) complexes were dissolved in DMSO) for 1 hour, washed three times with 100 μL PBS, and incubated in 100 μL of fresh medium. After 2 days, the medium was replaced with 120 μL of medium containing CellTiter 96® Aqueous One Solution Reagent (MTS reagent) (Promega, Madison, Wis.). The cells were incubated at 37° C. for 4 hours and the cell viability was determined by measuring the absorbance at 490 nm using a Tecan Infinite M1000 microplate reader. The 48 h treatment was done in a similar manner, except the cells were not washed after treatment and the MTS reagent was immediately added. Viability of treated groups was calculated as a percent of control and graphed with GraphPad Prism.
# (§3) The anti-proliferative activities of Pt(IV) complexes were determined in two lung (A549 and H520), two prostate (DU145 and PC-3), and six breast (HCC38, MCF-7, MDA-MB-231, SK-BR-3, T-47D, and ZR-75-1) cancer cell lines. The cells were treated with increasing concentrations of cisplatin (CDDP), carboplatin, or the Pt(IV) complexes for 1 or 48 hours, and the viability was measured using an MTS colorimetric cell proliferation assay. Graphs of the results are shown for DU145 (FIG. 8A), PC-3 (FIG. 8B), SK-BR-3 (FIG. 8C), ZR-75-1 (FIG. 8D), A549 (FIG. 8E), and MCF-7 (FIG. 8F).
# H520 lung cancer cells = assay: MTS cell viability assay, H520; assay type: cell-based, human; conditions: read-out: EC50 (effective concentration that resulted in 50% cell viability)
# Procedure: as §1, §2, §3
# [2] = tested on: DU145 prostate cancer cells; assay type: cell-based, human; conditions: for EC50: read-out: EC50 (effective concentration that resulted in 50% cell viability)
# Procedure: as §1, §2, §3
# (§4) The anti-proliferative activities of certain Pt(II) complexes were determined in DU145, PC-3, and SK-BR-3 cells. The cells were treated with increasing concentrations of cisplatin (CDDP) or the Pt(II) complexes for 1 or 48 hours, and the viability was measured using an MTS colorimetric cell proliferation assay.
# [3] = tested on: PC-3 prostate cancer cells; assay: MTS cell viability assay, PC-3; assay type: cell-based, human; conditions: read-out: EC50 (effective concentration that resulted in 50% cell viability)
# Procedure: as §1, §2, §3, §4
# [4] = tested on: HCC38 breast cancer cells; assay: MTS cell viability assay, HCC38; assay type: cell-based, human; conditions: read-out: EC50 (effective concentration that resulted in 50% cell viability)
# Procedure: as §1, §2, §3
# [5] = tested on: MCF-7 breast cancer cells; assay: MTS cell viability assay, MCF-7; assay type: cell-based, human; conditions: for EC50: read-out: EC50 (effective concentration that resulted in 50% cell viability)
# Procedure: as §1, §2, §3
# [6] = tested on: MDA-MB-231 breast cancer cells; assay: MTS cell viability assay, MDA-MB-231; assay type: cell-based, human; conditions: read-out: EC50 (effective concentration that resulted in 50% cell viability)
# Procedure: as §1, §2, §3
# [7] = tested on: SK-BR-3 breast cancer cells; assay: MTS cell viability assay, SK-BR-3; assay type: cell-based, human; conditions: read-out: EC50 (effective concentration that resulted in 50% cell viability)
# Procedure: as §1, §2, §3, §4
# [8] = tested on: T-47D breast cancer cells; assay: MTS cell viability assay, T-47D; assay type: cell-based, human
# Procedure: as §1, §2, §3
# [9] = tested on: ZR-75-1 breast cancer cells; assay: MTS cell viability assay, ZR-75-1; assay type: cell-based, human; conditions: read-out: EC50 (effective concentration that resulted in 50% cell viability)
# Procedure: as §1, §2, §3
smiles,measurement,setting,value
CCCCCCCCOc1ccnc(-c2cc(OCCCCCCCC)ccn2)c1.[Cl][Pt][Cl] [Pt(II)-8C],solubility in DMSO and other common organic solvents (in words),[1],poor solubility in DMSO
CCCCCCOc1ccnc(-c2cc(OCCCCCC)ccn2)c1.[Cl][Pt][Cl] [Pt(II)-6C],EC50,"A549 lung cancer cells; A549, 1 h treatment, Table 2",66 ± 16 µM
same,EC50,"A549 lung cancer cells; A549, 48 h treatment, Table 4",19.1 ± 0.8 µM
same,EC50,"H520 lung cancer cells; H520, 1 h treatment, Table 2",> 50 µM
same,EC50,"H520 lung cancer cells; H520, 48 h treatment, Table 4",18 ± 1 µM
same,EC50,"[2]; DU145, 1 h treatment, Table 2",2.1 ± 0.1 µM
same,EC50,"[2]; DU145, 48 h treatment, Table 4",1.9 ± 0.1 µM
same,EC50,"[3]; PC-3, 1 h treatment, Table 2",2.24 ± 0.03 µM
same,EC50,"[3]; PC-3, 48 h treatment, Table 4",2.7 ± 0.1 µM
same,EC50,"[4]; HCC38, 1 h treatment, Table 2",16 ± 5 µM
same,EC50,"[4]; HCC38, 48 h treatment, Table 4",14 ± 4 µM
same,EC50,"[5]; MCF-7, 1 h treatment, Table 2",80 ± 30 µM
same,EC50,"[5]; MCF-7, 48 h treatment, Table 4",12 ± 4 µM
same,EC50,"[6]; MDA-MB-231, 1 h treatment, Table 2",6 ± 3 µM
same,EC50,"[6]; MDA-MB-231, 48 h treatment, Table 4",4 ± 1 µM
same,EC50,"[7]; SK-BR-3, 1 h treatment, Table 2",1.84 ± 0.03 µM
same,EC50,"[7]; SK-BR-3, 48 h treatment, Table 4",1.8 µM
same,EC50,"[8]; 1 h treatment, Table 2, read-out: EC50 (effective concentration that resulted in 50% cell viability)",3.2 ± 0.8 µM
same,EC50,"[8]; 48 h treatment, Table 4, read-out: EC50 (effective concentration that resulted in 50% cell viability)",2.1 ± 0.2 µM
same,EC50,"[9]; ZR-75-1, 1 h treatment, Table 2",7 ± 2 µM
same,EC50,"[9]; ZR-75-1, 48 h treatment, Table 4",6.4 ± 0.4 µM
"CC(=O)[O][Pt]([Cl])([Cl])[O]C(C)=O.CCOc1ccnc(-c2cc(OCC)ccn2)c1 [Pt(IV)-2C, [Pt(IV)Cl2(OAc)2(4,4′-diethoxy-2,2′-bipyridine)]]",EC50,"A549 lung cancer cells; A549, 1 h treatment, Table 3",> 50 µM
same,EC50,"A549 lung cancer cells; A549, 48 h, Table 5",> 50 µM
same,effect on cell viability (in words),"A549 lung cancer cells; A549, 48 hour treatment (FIG. 8E)",had no effect
same,EC50,"H520 lung cancer cells; H520, 1 h treatment, Table 3",> 100 µM
same,EC50,"H520 lung cancer cells; H520, 48 h, Table 5",61 ± 2 µM
same,effect on cell viability (in words),"[2]; DU145, 1 hour treatment (FIG. 8A, top), up to 1 mM carboplatin, 100 μM Pt(IV)-1C, 50 μM Pt(IV)-2C",did not have any effects
same,EC50,"[2]; DU145, 1 h treatment, Table 3",> 50 µM
same,EC50,"[2]; DU145, 48 h, Table 5",10 ± 4 µM
same,EC50,"[3]; PC-3, 1 h treatment, Table 3",> 50 µM
same,EC50,"[3]; PC-3, 48 h, Table 5",20 ± 2 µM
same,EC50,"[4]; HCC38, 1 h treatment, Table 3",93 ± 10 µM
same,EC50,"[4]; HCC38, 48 h, Table 5",30 ± 9 µM
same,EC50,"[5]; MCF-7, 1 h treatment, Table 3",> 100 µM
same,EC50,"[5]; MCF-7, 48 h, Table 5",> 100 µM
same,effect on cell viability (in words),"[5]; MCF-7, 48 hour treatment (FIG. 8F)",had no effect
same,EC50,"[6]; MDA-MB-231, 1 h treatment, Table 3",> 100 µM
same,EC50,"[6]; MDA-MB-231, 48 h, Table 5",28 ± 7 µM
same,EC50,"[7]; SK-BR-3, 1 h treatment, Table 3",40 ± 10 µM
same,EC50,"[7]; SK-BR-3, 48 h, Table 5",8.3 ± 0.7 µM
same,EC50,"[8]; 1 h treatment, Table 3, read-out: EC50 (effective concentration that resulted in 50% cell viability)",46 ± 8 µM
same,EC50,"[8]; 48 h, Table 5, read-out: EC50 (effective concentration that resulted in 50% cell viability)",0.95 ± 0.03 µM
same,EC50,"[9]; ZR-75-1, 1 h treatment, Table 3",> 50 µM
same,EC50,"[9]; ZR-75-1, 48 h, Table 5",17 ± 7 µM
